# According to patent US20230085307A1, “PYRIDAZINONE COMPOUND AND HERBICIDE” (NISSAN CHEMICAL CORPORATION, priority 2019, published 2023):
# Legend:
# [1] = tested on: green foxtail; experiment: Test Example 5: herbicidal effect by foliage application, plastic box (Table 20, symbol G); assay type: in vivo, green foxtail (Setaria viridis); conditions: 320 g/ha
# Method in brief: (§1)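 Post-emergence foliar test in sterilized diluvial soil. Compound applied as water-diluted emulsion at a predetermined rate to 14-day-old plants; evaluation at three weeks.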
# [2] = tested on: rice flat sedge; experiment: Test Example 3: herbicidal effect by foliage application, Wagner pot (Table 18, symbol E); assay type: in vivo, rice flat sedge (Cyperus iria); conditions: 320 g/ha
# Method in brief: (§2)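 Plants were sown in alluvial soil held under 0.1–0.5 cm standing water and grown 14 days in a greenhouse at 25–30 °C. An emulsifiable formulation, water-diluted to the set dose, was then sprayed onto the foliage, and effects were scored three weeks later using previously defined criteria.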
# [3] = tested on: velvetleaf; experiment: Test Example 4: herbicidal effect by soil treatment (Table 19, symbol M); assay type: in vivo, velvetleaf (Abutilon theophrasti); conditions: amount of applied herbicide 320 g/ha
# Method in brief: (§3)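 Scoring uses the grading scale of an earlier test, three weeks post-application. Treatment consists of spraying a diluted emulsion formulation across the surface of sterilized diluvial soil in which seeds are buried near 1.5 cm deep; boxes are kept in a greenhouse between 25° C. and 30° C.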
# [4] = tested on: persian speedwell; experiment: Test Example 4: herbicidal effect by soil treatment (Table 19, symbol R); assay type: in vivo, Persian speedwell (Veronica persica); conditions: amount of applied herbicide 320 g/ha
# Method in brief: as §3
# [5] = tested on: windgrass; experiment: Test Example 4: herbicidal effect by soil treatment (Table 19, symbol L); assay type: in vivo, windgrass (Apera spica-venti); conditions: amount of applied herbicide 320 g/ha
# Method in brief: as §3
# [6] = tested on: barnyard grass; experiment: Test Example 4: herbicidal effect by soil treatment (Table 19, symbol H); assay type: in vivo, barnyard grass (Echinochloa crus-galli); conditions: amount of applied herbicide 320 g/ha
# Method in brief: as §3
# [7] = tested on: chickweed; experiment: Test Example 5: herbicidal effect by foliage application, plastic box (Table 20, symbol P); assay type: in vivo, common chickweed (Stellaria media); conditions: foliage application, 320 g/ha, three weeks after application
# Method in brief: as §1
# [8] = tested on: redroot pigweed; experiment: Test Example 4: herbicidal effect by soil treatment (Table 19, symbol N); assay type: in vivo, redroot pigweed (Amaranthus retroflexus); conditions: amount of applied herbicide 320 g/ha
# Method in brief: as §3
# [9] = tested on: blackgrass; experiment: Test Example 5: herbicidal effect by foliage application, plastic box (Table 20, symbol J); assay type: in vivo, blackgrass (Alopecurus myosuroides); conditions: 320 g/ha
# Method in brief: as §1
# [10] = tested on: Italian ryegrass; experiment: Test Example 4: herbicidal effect by soil treatment (Table 19, symbol K); assay type: in vivo, Italian ryegrass (Lolium multiflorum); conditions: amount of applied herbicide 320 g/ha
# Method in brief: as §3
# [11] = tested on: barnyard grass; experiment: Test Example 5: herbicidal effect by foliage application, plastic box (Table 20, symbol H); assay type: in vivo, barnyard grass (Echinochloa crus-galli); conditions: 320 g/ha
# Method in brief: as §1
# [12] = tested on: barnyard grass; experiment: Test Example 3: herbicidal effect by foliage application, Wagner pot (Table 18, symbol H); assay type: in vivo, barnyard grass (Echinochloa crus-galli); conditions: 320 g/ha
# Method in brief: as §2
# [13] = tested on: Italian ryegrass; experiment: Test Example 5: herbicidal effect by foliage application, plastic box (Table 20, symbol K); assay type: in vivo, Italian ryegrass (Lolium multiflorum); conditions: 320 g/ha
# Method in brief: as §1
# [14] = tested on: blackgrass; experiment: Test Example 4: herbicidal effect by soil treatment (Table 19, symbol J); assay type: in vivo, blackgrass (Alopecurus myosuroides); conditions: amount of applied herbicide 320 g/ha
# Method in brief: as §3
# [15] = tested on: persian speedwell; experiment: Test Example 5: herbicidal effect by foliage application, plastic box (Table 20, symbol R); assay type: in vivo, Persian speedwell (Veronica persica); conditions: 320 g/ha
# Method in brief: as §1
# [16] = tested on: velvetleaf; experiment: Test Example 5: herbicidal effect by foliage application, plastic box (Table 20, symbol M); assay type: in vivo, velvetleaf (Abutilon theophrasti); conditions: 320 g/ha
# Method in brief: as §1
# [17] = tested on: southern crabgrass; experiment: Test Example 5: herbicidal effect by foliage application, plastic box (Table 20, symbol F); assay type: in vivo, southern crabgrass (Digitaria ciliaris); conditions: 320 g/ha
# Method in brief: as §1
# [18] = tested on: lambsquarters; experiment: Test Example 5: herbicidal effect by foliage application, plastic box (Table 20, symbol O); assay type: in vivo, lambsquarters (Chenopodium album); conditions: 320 g/ha
# Method in brief: as §1
# [19] = tested on: redroot pigweed; experiment: Test Example 5: herbicidal effect by foliage application, plastic box (Table 20, symbol N); assay type: in vivo, redroot pigweed (Amaranthus retroflexus); conditions: 320 g/ha
# Method in brief: as §1
# [20] = tested on: windgrass; experiment: Test Example 5: herbicidal effect by foliage application, plastic box (Table 20, symbol L); assay type: in vivo, windgrass (Apera spica-venti); conditions: 320 g/ha
# Method in brief: as §1
# [21] = tested on: lambsquarters; experiment: Test Example 4: herbicidal effect by soil treatment (Table 19, symbol O); assay type: in vivo, lambsquarters (Chenopodium album); conditions: amount of applied herbicide 320 g/ha
# Method in brief: as §3
# [22] = tested on: wild oat; experiment: Test Example 5: herbicidal effect by foliage application, plastic box (Table 20, symbol I); assay type: in vivo, wild oat (Avena fatua); conditions: 320 g/ha
# Method in brief: as §1
# [23] = tested on: southern crabgrass; experiment: Test Example 4: herbicidal effect by soil treatment (Table 19, symbol F); assay type: in vivo, southern crabgrass (Digitaria ciliaris); conditions: amount of applied herbicide 320 g/ha
# Method in brief: as §3
# [24] = tested on: chickweed; experiment: Test Example 4: herbicidal effect by soil treatment (Table 19, symbol P); assay type: in vivo, common chickweed (Stellaria media); conditions: amount of applied herbicide 320 g/ha
# Method in brief: as §3
# [25] = tested on: wild oat; experiment: Test Example 4: herbicidal effect by soil treatment (Table 19, symbol I); assay type: in vivo, wild oat (Avena fatua); conditions: amount of applied herbicide 320 g/ha
# Method in brief: as §3
# [26] = tested on: Chinese sprangletop; experiment: Test Example 3: herbicidal effect by foliage application, Wagner pot (Table 18, symbol D); assay type: in vivo, chinese sprangletop (Leptochloa chinensis); conditions: 320 g/ha
# Method in brief: as §2
# [27] = tested on: green foxtail; experiment: Test Example 4: herbicidal effect by soil treatment (Table 19, symbol G); assay type: in vivo, green foxtail (Setaria viridis); conditions: amount of applied herbicide 320 g/ha
# Method in brief: as §3
# [28] = foliage application, three weeks after application
# [29] = foliage application after 14-day growth, evaluated three weeks after application
structure (smiles),measurement,setting,value
CSc1ccccc1-c1sc2ccccc2c1-c1c(O)c(C)nn(C)c1=O [1-034],"herbicidal effect grade, G: green foxtail",[1]; [28],0 (Herbicidal rate of 5% or less (almost no effect))
same,"herbicidal effect on E (rice flat sedge), rating 0-5",[2],3 (Herbicidal rate of 40% or more and less than 70%)
same,"herbicidal effect rating, M: velvetleaf",[3],0 (Herbicidal rate of 5% or less (almost no effect))
same,"herbicidal effect rating, R: persian speedwell",[4],0 (Herbicidal rate of 5% or less (almost no effect))
same,"herbicidal effect rating, L: windgrass",[5],0 (Herbicidal rate of 5% or less (almost no effect))
same,"herbicidal effect rating, H: barnyard grass",[6],0 (Herbicidal rate of 5% or less (almost no effect))
same,"herbicidal effect grade, P: chickweed",[7],4 (Herbicidal rate of 70% or more and less than 90%)
same,"herbicidal effect rating, N: redroot pigweed",[8],0 (Herbicidal rate of 5% or less (almost no effect))
same,"herbicidal effect grade, J: blackgrass",[9]; [28],0 (Herbicidal rate of 5% or less (almost no effect))
same,"herbicidal effect rating, K: Italian ryegrass",[10],0 (Herbicidal rate of 5% or less (almost no effect))
same,"herbicidal effect grade, H: barnyard grass",[11]; [28],0 (Herbicidal rate of 5% or less (almost no effect))
same,"herbicidal effect on H (barnyard grass), rating 0-5",[12],1 (Herbicidal rate of 5% or more and less than 20%)
same,"herbicidal effect grade, K: Italian ryegrass",[13]; [28],0 (Herbicidal rate of 5% or less (almost no effect))
same,"herbicidal effect rating, J: blackgrass",[14],0 (Herbicidal rate of 5% or less (almost no effect))
same,"herbicidal effect grade, R: persian speedwell",[15]; [28],1 (Herbicidal rate of 5% or more and less than 20%)
same,"herbicidal effect grade, M: velvetleaf",[16]; [28],0 (Herbicidal rate of 5% or less (almost no effect))
same,"herbicidal effect grade, F: southern crabgrass",[17]; [28],0 (Herbicidal rate of 5% or less (almost no effect))
same,"herbicidal effect grade, O: lambsquarters",[18]; [28],0 (Herbicidal rate of 5% or less (almost no effect))
same,"herbicidal effect grade, N: redroot pigweed",[19]; [28],0 (Herbicidal rate of 5% or less (almost no effect))
same,"herbicidal effect grade, L: windgrass",[20]; [28],0 (Herbicidal rate of 5% or less (almost no effect))
same,"herbicidal effect rating, O: lambsquarters",[21],0 (Herbicidal rate of 5% or less (almost no effect))
same,"herbicidal effect grade, I: wild oat",[22]; [28],2 (Herbicidal rate of 20% or more and less than 40%)
same,"herbicidal effect rating, F: southern crabgrass",[23],0 (Herbicidal rate of 5% or less (almost no effect))
same,"herbicidal effect rating, P: chickweed",[24],3 (Herbicidal rate of 40% or more and less than 70%)
same,"herbicidal effect rating, I: wild oat",[25],0 (Herbicidal rate of 5% or less (almost no effect))
same,"herbicidal effect on D (Chinese sprangletop), rating 0-5",[26],0 (Herbicidal rate of 5% or less (almost no effect))
CCOc1cccc(-c2sc3c(Cl)cccc3c2-c2c(O)c(C)nn(C)c2=O)c1 [4-066],herbicidal effect on G: green foxtail (evaluation grade 0-5),[1]; [29],1 (Herbicidal rate of 5% or more and less than 20%)
same,herbicidal effect on rice flat sedge (E),[2],3 (Herbicidal rate of 40% or more and less than 70%)
same,"Herbicidal effect by soil treatment, M: velvetleaf",[3],0 (Herbicidal rate of 5% or less (almost no effect))
same,"Herbicidal effect by soil treatment, R: persian speedwell",[4],4 (Herbicidal rate of 70% or more and less than 90%)
same,"Herbicidal effect by soil treatment, L: windgrass",[5],0 (Herbicidal rate of 5% or less (almost no effect))
same,"Herbicidal effect by soil treatment, H: barnyard grass",[6],0 (Herbicidal rate of 5% or less (almost no effect))
same,"Herbicidal effect by soil treatment, N: redroot pigweed",[8],0 (Herbicidal rate of 5% or less (almost no effect))
same,herbicidal effect on J: blackgrass (evaluation grade 0-5),[9]; [29],0 (Herbicidal rate of 5% or less (almost no effect))
same,"Herbicidal effect by soil treatment, K: Italian ryegrass",[10],0 (Herbicidal rate of 5% or less (almost no effect))
same,herbicidal effect on H: barnyard grass (evaluation grade 0-5),[11]; [29],3 (Herbicidal rate of 40% or more and less than 70%)
same,herbicidal effect on K: Italian ryegrass (evaluation grade 0-5),[13]; [29],3 (Herbicidal rate of 40% or more and less than 70%)
same,"Herbicidal effect by soil treatment, J: blackgrass",[14],0 (Herbicidal rate of 5% or less (almost no effect))
same,herbicidal effect on R: persian speedwell (evaluation grade 0-5),[15]; [29],3 (Herbicidal rate of 40% or more and less than 70%)
same,herbicidal effect on M: velvetleaf (evaluation grade 0-5),[16]; [29],4 (Herbicidal rate of 70% or more and less than 90%)
same,herbicidal effect on F: southern crabgrass (evaluation grade 0-5),[17]; [29],0 (Herbicidal rate of 5% or less (almost no effect))
same,herbicidal effect on O: lambsquarters (evaluation grade 0-5),[18]; [29],3 (Herbicidal rate of 40% or more and less than 70%)
same,herbicidal effect on N: redroot pigweed (evaluation grade 0-5),[19]; [29],4 (Herbicidal rate of 70% or more and less than 90%)
same,herbicidal effect on L: windgrass (evaluation grade 0-5),[20]; [29],0 (Herbicidal rate of 5% or less (almost no effect))
same,"Herbicidal effect by soil treatment, O: lambsquarters",[21],0 (Herbicidal rate of 5% or less (almost no effect))
same,herbicidal effect on I: wild oat (evaluation grade 0-5),[22]; [29],0 (Herbicidal rate of 5% or less (almost no effect))
same,"Herbicidal effect by soil treatment, F: southern crabgrass",[23],0 (Herbicidal rate of 5% or less (almost no effect))
same,"Herbicidal effect by soil treatment, P: chickweed",[24],0 (Herbicidal rate of 5% or less (almost no effect))
same,"Herbicidal effect by soil treatment, G: green foxtail",[27],0 (Herbicidal rate of 5% or less (almost no effect))
same,"Herbicidal effect by soil treatment, I: wild oat",[25],0 (Herbicidal rate of 5% or less (almost no effect))
same,herbicidal effect on Chinese sprangletop (D),[26],0 (Herbicidal rate of 5% or less (almost no effect))
